pIC50: −log10 of the molar value.
Tests used:
[1] = biological target: T1, BRD4(2), second bromodomain of BRD4 (Homo sapiens, UniProt O60885); test: Bromoscan assay BRD4(2) (DiscoveRx); assay type: binding; settings: read-out: BromoScan BRD4_2 Kd/nM
T1 construct: BRD4(2) for the second bromodomain of BRD4; purchased DiscoveRx Corporation (assay service); host or cells: T7 phage grown in an E. coli host derived from the BL21 strain
Description: (§1) Bromoscan assays were run by DiscoveRx Corporation. The relevant assay names are BRD4(1) for the first bromodomain of BRD4 and BRD4(2) for the second bromodomain of BRD4. Further Bromoscan assays covering other bromodomains could be employed to establish the selectivity profile of a compound of interest. To run the Bromoscan assay, a T7 phage strain displaying the relevant bromodomain was grown in parallel in 24-well blocks in an E. coli host derived from the BL21 strain. E. coli were grown to log-phase and infected with T7 phage from a frozen stock (multiplicity of infection=0.4) and incubated with shaking at 32° C. until lysis (90-150 minutes). The lysates were centrifuged (5,000×g) and filtered (0.2 μm) to remove cell debris. Streptavidin-coated magnetic beads were treated with biotinylated small molecule or acetylated peptide ligands for 30 minutes at room temperature to generate affinity resins for bromodomain assays. The liganded beads were blocked with excess biotin and washed with blocking buffer (SeaBlock (Pierce), 1% BSA (bovine serum albumin), 0.05% Tween 20, 1 mM DTT (dithiothreitol)) to remove unbound ligand and to reduce non-specific phage binding. Binding reactions were assembled by combining bromodomains, liganded affinity beads, and test compounds in 1× binding buffer (17% SeaBlock, 0.33×PBS, 0.04% Tween 20, 0.02% BSA, 0.004% Sodium azide, 7.4 mM DTT). Test compounds were prepared as 1000× stocks in 100% DMSO and subsequently diluted 1:10 in monoethylene glycol (MEG) to create stocks at 100× the screening concentration (resulting stock solution is 10% DMSO/90% MEG). The compounds were then diluted directly into the assays such that the final concentration of DMSO and MEG were 0.1% and 0.9%, respectively. All reactions were performed in polystyrene 96-well plates in a final volume of 0.135 ml. The assay plates were incubated at room temperature with shaking for 1 hour and the affinity beads were washed with wash buffer (1×PBS, 0.05% Tween 20). The beads were then re-suspended in elution buffer (lx PBS, 0.05% Tween 20, 2 μM nonbiotinylated affinity ligand) and incubated at room temperature with shaking for 30 minutes. The bromodomain concentration in the eluates was measured by qPCR (quantitative real-time polymerase chain reaction).

IL-12p40 = test: Cytokine release inhibition assay: LPS-induced cytokine release from human PBMCs; assay type: cell-based; settings: PBMC, LPS 1 ng/mL, 18 h, read-out: LPS IC50 IL12p40 μM
Description: Cytokine release inhibition assay: LPS-induced cytokine release from human peripheral blood mononuclear cells (PBMCs)
200,000 PBMCs were seeded per well of a 96-well plate in 160 μL of medium. Afterwards, 20 μL of ten times concentrated working dilutions of compound or DMSO control were added per well. Cells were pre-incubated with compounds for 1 h at 37° C., 5% CO2, 95% humidity and 20 μL of ten times concentrated LPS was added to cells (Sigma L4391, final concentration 1 ng/mL). Following 18 h incubation at 37° C., 5% CO2, 95% humidity, plates were centrifuged for 10 minutes at 300×g. 150 μL of supernatants were collected for IL-12p40 determination. The concentration of IL-12p40 in supernatants was determined by sandwich ELISA (enzyme-linked immunosorbent assay) using capture and detection antibodies according to the manufacturer's instructions (R&D Systems DY1240). Data can be analyzed using GraphPad Prism, and IC50 data can be obtained using non-linear regression curve fit using log(compound) vs response (variable slope).

BRD4 protein = BRD4 protein (Homo sapiens, UniProt O60885); test: FRET assay, half maximal inhibitory concentration (IC50); assay type: binding; settings: BRD4 protein 50 nM, Biotin-H4KAc4 peptide 12.5 nM
Outline: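 Acetylated histone H4 peptide binding (biotin-H4KAc4, 12.5 nM final) to BRD4 (50 nM final) detected by TR-FRET between streptavidin cryptate (2.4 nM) and GST-XL665 antibody (10 nM) in KF/BSA. Buffer: HEPES pH 7.5, NaCl, CHAPS. Compound dilutions from 50 μM in 12.5% DMSO were preincubated with protein for 30 min. Variable-slope IC50.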

[2] = biological target: T2, BRD4(1), first bromodomain of BRD4 (Homo sapiens, UniProt O60885); test: Bromoscan assay BRD4(1) (DiscoveRx); assay type: binding; settings: for Kd: first bromodomain of BRD4, read-out: BromoScan BRD4_1 Kd/nM; for BromoScan BRD4_2/1: ratio of Kd BRD4_2 to BRD4_1, selectivity for BRD4_1 over BRD4_2
T2 construct: BRD4(1) for the first bromodomain of BRD4; purchased DiscoveRx Corporation (assay service); host or cells: T7 phage grown in an E. coli host derived from the BL21 strain
Description: as §1

[3] = A Further List of Classification

For Cc1cc(O)nc2ccc(NC(=O)c3cc(C(C)O)ncc3N3CCCC3)cc12 (centres unmarked) [Compound-43], the Kd [1] was 79 nM, the pIC50 (IL-12p40) was 6.40 and the pIC50 (BRD4 protein; List of Classification) was > 6.70. For the same molecule, the Kd [2] was 2.4 nM and the “BromoScan BRD4_2/1” value [2] was 32.9.
With Cc1cc2nc(O)cc(C)c2cc1NC(=O)c1cc(S(=O)(=O)N(C)C)ccc1N1CCOCC1 [Compound-99, 5-(dimethylsulfamoyl)-N-(2-hydroxy-4,7-dimethyl-6-quinolyl)-2-morpholino-benzamide] the Kd [1] was 5600 nM, the pIC50 (IL-12p40) was 6.40 and the pIC50 (BRD4 protein; List of Classification) was > 6.70. For the same molecule, the Kd [2] was 12 nM and the “BromoScan BRD4_2/1” value [2] was 466.7.
Cc1cc(O)nc2ccc(NC(=O)c3cccnc3N3CCOCC3)cc12 [Compound-128, N-(2-hydroxy-4-methyl-6-quinolyl)-2-morpholino-pyridine-3-carboxamide] was tested, and the Kd [1] was 2500 nM, the pIC50 (IL-12p40) was 6.52 and the pIC50 (BRD4 protein; List of Classification) was > 6.70. The Kd [2] was 15 nM and the “BromoScan BRD4_2/1” value [2] was 166.7.
In the case of Cc1cc(O)nc2ccc(NC(=O)c3cc(CN4CCCN(C)CC4)ccc3N3CCCC3)cc12 [S87, N-(2-hydroxy-4-methyl-6-quinolyl)-5-[(4-methyl-1,4-diazepan-1-yl)methyl]-2-pyrrolidin-1-yl-benzamide], the pIC50 (BRD4 protein; [3]) was > 6.70.
For COC1CCN(Cc2ccc(N3CCCC3)c(C(=O)Nc3ccc4nc(O)cc(C)c4c3)c2)C1 (centres unmarked) [S88, N-(2-hydroxy-4-methyl-6-quinolyl)-5-[(3-methoxypyrrolidin-1-yl)methyl]-2-pyrrolidin-1-yl-benzamide], the pIC50 (BRD4 protein; [3]) was > 6.70.
In the case of Cc1cc(O)nc2ccc(NC(=O)c3cc(CN4CC(O)C4)ccc3N3CCCC3)cc12 [S89, 5-[(3-hydroxyazetidin-1-yl)methyl]-N-(2-hydroxy-4-methyl-6-quinolyl)-2-pyrrolidin-1-yl-benzamide], the pIC50 (BRD4 protein; [3]) was > 6.70.
In the case of COCC1CN(Cc2ccc(N3CCCC3)c(C(=O)Nc3ccc4nc(O)cc(C)c4c3)c2)C1 [S90, N-(2-hydroxy-4-methyl-6-quinolyl)-5-[[3-(methoxymethyl)azetidin-1-yl]methyl]-2-pyrrolidin-1-yl-benzamide], the pIC50 (BRD4 protein; [3]) was > 6.70.
COCC1CCCN(Cc2ccc(N3CCCC3)c(C(=O)Nc3ccc4nc(O)cc(C)c4c3)c2)C1 (centres unmarked) [S91, N-(2-hydroxy-4-methyl-6-quinolyl)-5-[[3-(methoxymethyl)-1-piperidyl]methyl]-2-pyrrolidin-1-yl-benzamide] was tested, and the pIC50 (BRD4 protein; [3]) was > 6.70.
Cc1cc(O)nc2ccc(NC(=O)c3cc(CN4CCOCC4)cnc3N3CCC(C)C3)cc12 (centres unmarked) [S93, N-(2-hydroxy-4-methyl-6-quinolyl)-2-(3-methylpyrrolidin-1-yl)-5-(morpholinomethyl)pyridine-3-carboxamide] was tested, and the pIC50 (BRD4 protein; [3]) was > 6.70.
With Cc1cc(O)nc2ccc(NC(=O)c3cc(CN4CCOCC4)cnc3N3CCCC3C)cc12 (centres unmarked) [S94, N-(2-hydroxy-4-methyl-6-quinolyl)-2-(2-methylpyrrolidin-1-yl)-5-(morpholinomethyl)pyridine-3-carboxamide] the pIC50 (BRD4 protein; [3]) was 6.30 to 6.70.
Cc1cc(O)nc2ccc(NC(=O)c3cc(CN4CCOCC4)cnc3N3CCC(C)(F)C3)cc12 (centres unmarked) [S97, 2-(3-fluoro-3-methyl-pyrrolidin-1-yl)-N-(2-hydroxy-4-methyl-6-quinolyl)-5-(morpholinomethyl)pyridine-3-carboxamide] was tested, and the pIC50 (BRD4 protein; [3]) was 6.30 to 6.70.
In the case of Cc1cc(O)nc2ccc(NC(=O)c3cc(CN4CCOCC4)cnc3N3CCC(C(N)=O)C3)cc12 (centres unmarked) [S98, 2-(3-carbamoylpyrrolidin-1-yl)-N-(2-hydroxy-4-methyl-6-quinolyl)-5-(morpholinomethyl)pyridine-3-carboxamide], the pIC50 (BRD4 protein; [3]) was 6.00 to 6.30.
Cc1cc(O)nc2ccc(NC(=O)c3cc(CN4CCOCC4)cnc3N3CCC(CC(C)C)C3)cc12 (centres unmarked) [S101, N-(2-hydroxy-4-methyl-6-quinolyl)-2-(3-isobutylpyrrolidin-1-yl)-5-(morpholinomethyl)pyridine-3-carboxamide] showed a pIC50 (BRD4 protein; [3]) of 5.00 to 6.00.
Cc1cc(O)nc2ccc(NC(=O)c3cc(CN4CCOCC4)cnc3N3CCC(N4CCCC4)C3)cc12 (centres unmarked) [S107, N-(2-hydroxy-4-methyl-6-quinolyl)-5-(morpholinomethyl)-2-(3-pyrrolidin-1-ylpyrrolidin-1-yl)pyridine-3-carboxamide] gave a pIC50 (BRD4 protein; [3]) of 5.00 to 6.00.
Cc1cc(O)nc2ccc(NC(=O)c3cc(CN4CCOCC4)cnc3N3CCCC3C(=O)N(C)C)cc12 (centres unmarked) [S109, 2-[2-(dimethylcarbamoyl)pyrrolidin-1-yl]-N-(2-hydroxy-4-methyl-6-quinolyl)-5-(morpholinomethyl)pyridine-3-carboxamide] showed a pIC50 (BRD4 protein; [3]) of 6.00 to 6.30.
In the case of Cc1cc(O)nc2ccc(NC(=O)c3cc(CN4CCOCC4)cnc3N3CCC(c4ccncc4)C3)cc12 (centres unmarked) [S111, N-(2-hydroxy-4-methyl-6-quinolyl)-5-(morpholinomethyl)-2-[3-(4-pyridyl)pyrrolidin-1-yl]pyridine-3-carboxamide], the pIC50 (BRD4 protein; [3]) was 6.00 to 6.30.
Cc1cc(O)nc2ccc(NC(=O)c3cc(CN4CCOCC4)cnc3N3CCOC(CO)C3)cc12 (centres unmarked) [S114, 2-[2-(hydroxymethyl)morpholin-4-yl]-N-(2-hydroxy-4-methyl-6-quinolyl)-5-(morpholinomethyl)pyridine-3-carboxamide] was tested, and the pIC50 (BRD4 protein; [3]) was < 5.00.
For Cc1cc(O)nc2ccc(NC(=O)c3cc(CN4CCOCC4)cnc3N3CC(CO)OCC3C)cc12 (centres unmarked) [S115, 2-[2-(hydroxymethyl)-5-methyl-morpholin-4-yl]-N-(2-hydroxy-4-methyl-6-quinolyl)-5-(morpholinomethyl)pyridine-3-carboxamide], the pIC50 (BRD4 protein; [3]) was < 5.00.
In the case of Cc1cc(O)nc2ccc(NC(=O)c3cc(CN4CCOCC4)cnc3N3CCOC(CN(C)C)C3)cc12 (centres unmarked) [S117, 2-[2-(dimethylaminomethyl)morpholin-4-yl]-N-(2-hydroxy-4-methyl-6-quinolyl)-5-(morpholinomethyl)pyridine-3-carboxamide], the pIC50 (BRD4 protein; [3]) was < 5.00.
With Cc1cc(O)nc2ccc(NC(=O)c3cc(CN4CCOCC4)cnc3N3CCC(CO)C3)cc12 (centres unmarked) [S118, 2-[3-(hydroxymethyl)pyrrolidin-1-yl]-N-(2-hydroxy-4-methyl-6-quinolyl)-5-(morpholinomethyl)pyridine-3-carboxamide] the pIC50 (BRD4 protein; [3]) was < 5.00.

— US10752640B2, “Compounds active towards bromodomains” (NUEVOLUTION A/S, priority 2014, dated 2020)
